# Test results reported in patent US20220325233A1, “MEDIUM SUPPLEMENT FOR HIGH-YIELD INDUSTRIAL CULTURE OF FASTIDIOUS ANAEROBES AND MEDIUM COMPOSITION CONTAINING THE SAME” (priority 2020, published 2022).
# Test system: Akkermansia muciniphila EB-AMDK19 (KCTC 13761BP) strain
# Assay: Growth (change in optical density, ΔOD600) in anaerobic batch culture
# Type: cell-based
# Details: for Growth (ΔOD600): after 72 hours of culture; for Growth (AOD 600): after 48 hours of culture
# Method: In addition, in the following examples, the concentration of anaerobes (amount of biomass produced) was determined by measuring the optical density of the culture medium at 600 nm using a spectrophotometer during the culture period. ΔOD was calculated as the difference in absorbance between the initial stage of culture and after 48 hours (or 72 hours) of culture.
# Based on soy casein digest broth (tryptic soy broth (TSB)), the optimal combination of substrates and components that can replace mucin was investigated.
# Next, changes in the optical density (OD600) of the strain were measured, and the results of the measurement are shown in Table 3 below.
# In addition, to find the optimal concentration of cobalamin, the strain was cultured while changing the concentrations of cobalamin, and then changes in the optical density (OD600) of the strain were measured.
# In order to find the essential components necessary for high-concentration culture of anaerobes and an optimal combination thereof, the Akkermansia muciniphila strain was cultured in media having various combinations of components under the same conditions.
# An experiment was performed in the same manner as in Example 1 above, except that the medium shown in Table 2 above were used and the kind of strain cultured was changed as shown in Table 7 below. Specifically, each Akkermansia muciniphila strain was inoculated into the medium at a ratio of 0.1% v/v, and then cultured at 37° C. under anaerobic conditions (90% N2, 5% CO2, and 5% H2) for 24 to 48 hours.
# [1] = single vitamin added at 0.2 mg/L
# [2] = single vitamin added at 0.1 mg/L
molecule,measurement,setting,value
Cc1ncc(C[n+]2csc(CCO)c2C)c(N)n1 [Medium B1],Growth (ΔOD600),[1],0.352
Cc1cc2nc3c(=O)[nH]c(=O)nc-3n(C[C@H](O)[C@H](O)[C@H](O)CO)c2cc1C [Medium B2],Growth (ΔOD600),[2],0.334
O=C(O)c1cccnc1 [Medium B3],Growth (ΔOD600),[1],0.342
CC(C)(CO)[C@@H](O)C(=O)NCCC(=O)O [Medium B5],Growth (ΔOD600),[2],0.347
Cc1ncc(CO)c(CO)c1O [Medium B6],Growth (ΔOD600),single vitamin added at 0.5 mg/L,0.337
O=C(O)CCCC[C@@H]1SC[C@@H]2NC(=O)N[C@@H]21 [Medium B7],Growth (ΔOD600),single vitamin added at 0.02 mg/L,0.344
Nc1nc(=O)c2nc(CNc3ccc(C(=O)N[C@@H](CCC(=O)O)C(=O)O)cc3)cnc2[nH]1 [Medium B9],Growth (ΔOD600),single vitamin added at 0.05 mg/L,0.348
Nc1ccc(C(=O)O)cc1 [Medium B10],Growth (ΔOD600),[2],0.335
Cyanocobalamin,Growth (AOD 600),Cyanocobalamin 0.05 mg/L,0.563 ± 0.012
same,Growth (AOD 600),Cyanocobalamin 0.1 mg/L,0.576 ± 0.014
same,Growth (AOD 600),Cyanocobalamin 0.2 mg/L,0.577 ± 0.008
same,Growth (AOD 600),Cyanocobalamin 0.5 mg/L,0.575 ± 0.011
same,Growth (AOD 600),Cyanocobalamin 1 mg/L,0.581 ± 0.003
same,Growth (AOD 600),Cyanocobalamin 5 mg/L,0.571 ± 0.007
same,optimal concentration in the medium,from Table 5 concentration series,0.1 mg/L
same,Growth (ΔOD600),[2],0.575
